Patent US10221163B2 (priority 2015, dated 2019)
Read-outs that look alike come from different tables or passages of the source.

How the values were obtained:
[1] = test system: Serratia marcescens expressing IMP-1 (CL5741); assay type: cell-based; settings: for Serratia marcescens MITC95: IMP-1 strain CL5741, with imipenem 1 μg/ml, 95% inhibition of growth; for Serratia marcescens expressing IMP-1 (CL5741) MITC95: with imipenem 1 μg/ml, 95% inhibition of bacterial growth
Outline: (§1)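 Clinical isolates (E. coli NDM-1, S. marcescens IMP-1, K. pneumoniae VIM-1) were diluted 1:100 from saline suspension into 1.1×CAMHB and exposed to test compound with imipenem at 1 μg/ml. Plates were incubated at 35° C for 22 hours to 24 hours, and growth was read by absorbance.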

[2] = test system: Klebsiella pneumoniae expressing VIM-1 (IHMA599644); assay type: cell-based; settings: for Klebsiella pneumoniae MITC95: VIM-1 strain IHMA599644, with imipenem 1 μg/ml, 95% inhibition of growth; for Klebsiella pneumoniae expressing VIM-1 (IHMA599644) MITC95: with imipenem 1 μg/ml, 95% inhibition of bacterial growth
Outline: as §1

[3] = test system: Escherichia coli expressing NDM-1 (CLB30005, CLB30016); assay type: cell-based; settings: with imipenem 1 μg/ml; for Escherichia coli MITC95: NDM-1 strain, 95% inhibition of growth; for Escherichia coli expressing NDM-1 (CLB30016) MITC95: 95% inhibition of bacterial growth
Outline: as §1

[4] = test system: Pseudomonas aeruginosa efflux− (MB9799), IMP-1; assay type: cell-based; settings: C, D serine β-lactamase inhibitor closely related to relebactam; for P. aeruginosa expressing IMP-1, efflux − (MB9799) MITC95: concentration restoring susceptibility to imipenem at 2 μg/mL in the presence of a class A; for Concentration of metallo-β-lactamase inhibitor which restores susceptibility of efflux − (MB9799) strain to imipenem: imipenem at 2 μg/mL, in the presence of a class A
Outline: (§2)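 PAO1 pair, broth microdilution; fixed β-lactam (imipenem/ceftazidime) at ~CLSI breakpoint + fixed class A/C BLI for AmpC; serial MBLi titration; endpoint = MBLi conc. restoring susceptibility; MB9798:MB9799 ratio = efflux liability.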

VIM-1 = VIM-1 (Pseudomonas aeruginosa (strain ATCC 15692 / DSM 22644 / CIP 104116 / JCM 14847 / LMG 12228 / 1C / PRS 101 / PAO1), UniProt A0A0F7KYQ8); assay: biochemical; settings: CCF2-FA substrate, 30 pM enzyme, 2 hours at 25° C.
Outline: (§3)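 IC50 values derive from 4-parameter fits of percent inhibition against inhibitor concentration on semi-log axes. Activity was monitored by fluorescence with the CCF2-FA substrate after a 2-hour, 25° C incubation of compound, enzyme and substrate.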

[5] = test system: Pseudomonas aeruginosa MB9798 vs MB9799
Outline: as §2

NDM-1 = NDM-1 (Klebsiella pneumoniae, UniProt C7C422); assay: biochemical; assay type: biochemical; settings: fluorescence assay, CCF2-FA substrate, 1 pM enzyme, 2 hours at 25° C.; read-out: NDM-1 IC50
Outline: as §3

IMP-1 = IMP-1 (Serratia marcescens, UniProt P52699); assay: biochemical; assay type: biochemical; settings: fluorescence assay, CCF2-FA substrate, 2 pM enzyme, 2 hours at 25° C.; read-out: IMP-1 IC50
Outline: as §3

[6] = test system: Pseudomonas aeruginosa efflux+ (MB9798), IMP-1; assay type: cell-based; design: Concentration of metallo-β-lactamase inhibitor which restores susceptibility of efflux + (MB9798) strain to imipenem: unit not given here; settings: C, D serine β-lactamase inhibitor closely related to relebactam; for P. aeruginosa expressing IMP-1, efflux + (MB9798) MITC95: concentration restoring susceptibility to imipenem at 2 μg/mL in the presence of a class A; for Concentration of metallo-β-lactamase inhibitor which restores susceptibility of efflux + (MB9798) strain to imipenem: imipenem at 2 μg/mL, in the presence of a class A
Outline: as §2

[7] = fluorescence assay, read-out: VIM-1 IC50
[8] = ratio MITC95 PA_9798/MITC95 PA_9799
[9] = fold difference between efflux+ (MB9798) and efflux− (MB9799) strains, imipenem at 2 μg/mL

Chain of IMP-1 (P52699 whole entry, looked up, species assumed): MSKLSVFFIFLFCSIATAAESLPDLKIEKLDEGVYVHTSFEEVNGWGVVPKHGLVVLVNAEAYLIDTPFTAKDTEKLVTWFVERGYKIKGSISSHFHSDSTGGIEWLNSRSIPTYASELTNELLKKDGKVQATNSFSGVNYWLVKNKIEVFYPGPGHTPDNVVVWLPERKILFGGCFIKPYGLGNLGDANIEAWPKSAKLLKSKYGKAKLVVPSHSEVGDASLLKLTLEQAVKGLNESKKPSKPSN
Chain of NDM-1 (C7C422 whole entry, looked up, species assumed): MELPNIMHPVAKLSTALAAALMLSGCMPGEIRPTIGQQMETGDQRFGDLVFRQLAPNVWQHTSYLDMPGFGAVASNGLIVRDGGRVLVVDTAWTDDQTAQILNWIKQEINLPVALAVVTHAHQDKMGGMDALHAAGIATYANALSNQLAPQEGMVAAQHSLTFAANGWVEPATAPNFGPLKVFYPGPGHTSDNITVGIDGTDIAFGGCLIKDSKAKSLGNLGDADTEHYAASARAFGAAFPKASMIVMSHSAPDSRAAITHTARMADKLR

| Structure (SMILES) | Serratia marcescens MITC95 [1] [µM] | Klebsiella pneumoniae MITC95 [2] [µM] | Escherichia coli MITC95 [3] [µM] | P. aeruginosa expressing IMP-1, efflux − (MB9799) MITC95 [4] [µM] | IC50 (VIM-1; [7]) [nM] | Efflux ratio [5, 8] | IC50 (NDM-1) [nM] | IC50 (IMP-1) [nM] | P. aeruginosa expressing IMP-1, efflux + (MB9798) MITC95 [6] [µM] | Concentration of metallo-β-lactamase inhibitor which restores susceptibility of efflux − (MB9799) strain to imipenem [4] | Efflux ratio [5, 9] | Concentration of metallo-β-lactamase inhibitor which restores susceptibility of efflux + (MB9798) strain to imipenem [6] | Serratia marcescens expressing IMP-1 (CL5741) MITC95 [1] [µM] | Klebsiella pneumoniae expressing VIM-1 (IHMA599644) MITC95 [2] [µM] | Escherichia coli expressing NDM-1 (CLB30016) MITC95 [3] [µM] | IC50 (VIM-1; VIM-1 IC50, fluorescence assay) [nM] |
| --- | --- | --- | --- | --- | --- | --- | --- | --- | --- | --- | --- | --- | --- | --- | --- | --- |
| NC[C@H](O)CNS(=O)(=O)c1ccc(-c2cccc3[nH]c(N)nc23)c(-c2nn[nH]n2)c1S(N)(=O)=O [Example 304, (S)-4-(2-amino-1H-benzo[d]imidazol-4-yl)-N1-(3-amino-2-hydroxypropyl)-3-(2H-tetrazol-5-yl)-benzene-1,2-disulfonamide] | 0.7813 | 1.563 | 0.3906 | 0.7813 | 0.208 | 0.50 | 0.0608 | 0.617 | 0.3906 | – | – | – | – | – | – | – |
| NC[C@H](N)CNS(=O)(=O)c1ccc(-c2ccc(N)nc2)c(-c2nn[nH]n2)c1S(N)(=O)=O [Example 415] | 1.172 | 3.125 | 0.1953 | – | 0.425 | – | 0.361 | 0.801 | – | 1.563 | 1.00 | 1.563 | – | – | – | – |
| NCCNc1ncccc1-c1ccc(S(=O)(=O)N[C@@H]2CCNC2)c(S(N)(=O)=O)c1-c1nn[nH]n1 [Example 459, (R)-4-(2-((2-Aminoethyl)amino)pyridin-3-yl)-N1-(pyrrolidin-3-yl)-3-(2H-tetrazol-5-yl)benzene-1,2-disulfonamide] | 1.563 | 1.563 | 0.3906 | – | 0.172 | – | 1.17 | 12.5 | – | 1.563 | 2.00 | 3.125 | – | – | – | – |
| CC(CN)NS(=O)(=O)c1ccc(-c2cccc3sc(N)nc23)c(-c2nnn[nH]2)c1S(N)(=O)=O.O=CO (stereo not drawn) [Example 116, 2-(4-(2-aminobenzo[d]thiazol-4-yl)-2-sulfamoyl-3-(1H-tetrazol-5-yl)phenylsulfonamido)propan-1-aminium formate] | – | – | – | 1.563 | – | 0.50 | 0.0239 | 0.267 | 0.7813 | – | – | – | 1.563 | 3.125 | 1.563 | 0.265 |
| Cn1c(N)nc2c(-c3ccc(S(N)(=O)=O)c(S(N)(=O)=O)c3-c3nn[nH]n3)cccc21 [Example 5, 4-(2-amino-1-methyl-1H-benzo[d]imidazol-4-yl)-3-(2H-tetrazol-5-yl)benzene-1,2-disulfonamide] | – | – | – | 0.8906 | 0.146 | 2.00 | 0.197 | 0.346 | 1.781 | – | – | – | 0.8906 | 1.781 | 0.25 | – |
| Nc1nc2c(-c3ccc(S(N)(=O)=O)c(S(N)(=O)=O)c3-c3nn[nH]n3)cccc2s1 [Example 143, 4-(2-aminobenzo[d]thiazol-4-yl)-3-(2H-tetrazol-5-yl)benzene-1,2-disulfonamide] | – | – | – | 1.563 | 0.22 | 0.50 | 0.0849 | 0.266 | 0.7813 | – | – | – | 1.563 | 12.5 | 3.125 | – |
| Nc1nc2c(-c3ccc(S(=O)(=O)NC4(CO)CCNC4)c(S(N)(=O)=O)c3-c3nnn[nH]3)cccc2s1 (stereo not drawn) [Example 84, 4-(2-amino-1,3-benzothiazol-4-yl)-N1-[3-(hydroxymethyl)pyrrolidin-3-yl]-3-(1H-tetrazol-5-yl)benzene-1,2-disulfonamide] | – | – | – | 1.563 | 0.27 | 1.00 | 0.0619 | 0.403 | 1.563 | – | – | – | 3.125 | 3.125 | 1.563 | – |
| Cc1cc(-c2ccc(S(=O)(=O)NC[C@H](O)CN)c(S(N)(=O)=O)c2-c2nn[nH]n2)cnc1N [Example 477, (R)—N1-(3-amino-2-hydroxypropyl)-4-(6-amino-5-methylpyridin-3-yl)-3-(2H-tetrazol-5-yl)benzene-1,2-disulfonamide] | 0.7813 | 1.563 | 0.1953 | – | 0.132 | – | 0.28 | 0.842 | – | 0.7813 | 2.00 | 1.563 | – | – | – | – |
| Cc1ccc(-c2ccc(S(=O)(=O)NCCN)c(S(N)(=O)=O)c2-c2nn[nH]n2)c2nc(N)[nH]c12 [Example 329, 4-(2-Amino-7-methyl-1H-benzo[d]imidazol-4-yl)-N1-(2-aminoethyl)-3-(2H-tetrazol-5-yl)benzene-1,2-disulfonamide] | 1.563 | 1.563 | 1.563 | 0.7813 | 0.043 | 2.00 | 0.0153 | 0.128 | 1.563 | – | – | – | – | – | – | – |
| NCc1nc2cc(-c3ccc(S(=O)(=O)N[C@@H]4CCNC4)c(S(N)(=O)=O)c3-c3nn[nH]n3)ccc2s1 [Example 275, (R)-4-(2-(aminomethyl)benzo[d]thiazol-5-yl)-N^1-(pyrrolidin-3-yl)-3-(2H-tetrazol-5-yl)benzene-1,2-disulfonamide] | 0.7813 | 1.563 | 0.7813 | 0.7813 | – | 1.00 | 0.0633 | 0.171 | 0.7813 | – | – | – | – | – | – | 0.0902 |
| NCc1nc2cc(-c3ccc(S(=O)(=O)NC[C@@H](O)CN)c(S(N)(=O)=O)c3-c3nn[nH]n3)ccc2[nH]1 [Example 465] | 1.563 | 1.563 | 0.7813 | – | 0.133 | – | 0.223 | 1.15 | – | 0.7813 | 1.00 | 0.7813 | – | – | – | – |
| NC[C@@H](O)CNS(=O)(=O)c1ccc(-c2ccc3nccn3c2)c(-c2nn[nH]n2)c1S(N)(=O)=O [Example 420] | 1.563 | 3.125 | 0.3906 | – | 0.125 | – | 0.23 | 0.974 | – | 0.7813 | 2.00 | 1.563 | – | – | – | – |
| C[C@H](CN)NS(=O)(=O)c1ccc(-c2cccc3[nH]nnc23)c(-c2nn[nH]n2)c1S(N)(=O)=O [Example 237] | – | – | – | 1.563 | 0.0552 | 0.50 | 0.0134 | 0.12 | 0.7813 | – | – | – | 1.563 | 1.563 | 3.125 | – |
